Calls of active or inactive are those of the source. How the calls were made is not given here.
Tested on: rodent carcinogenicity bioassays, tumor incidence
Test: CCRIS carcinogenicity studies
Conditions: Species: RAT
In short: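 Archive of carcinogenicity, mutagenicity, tumor promotion and tumor inhibition results drawn from journals, NCI reports and other sources, expert-reviewed; covers 1985-2011 and is no longer updated.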

Measured: carcinogen call

CCN(N=O)C(N)=O
active: Strain/Sex: F344/MALE, Route: GAVAGE, Dose: 0, 2.4 MG IN 0.2 ML ETHYL ACETATE/CORN OIL (1:1) 2/WK FOR 28 WK (TOTAL DOSE: 135 MG) (STUDY DURATION: 80 WK), Tumor Site: Type of Lesion: FORESTOMACH: CARCINOMA, LUNG: CARCINOMA OR ADENOMA active; positive | Strain/Sex: F344/MALE, Route: GAVAGE, Dose: 0, 6 MG/ML (TOTAL DOSE 0; 0.4 MMOL) IN 2 ML ETHYL ACETATE AND CORN OIL (1:2) 2/WK FOR 20 WK (STUDY DURATION: LIFETIME), Dose: 0, 6 MG/ML (TOTAL DOSE 0; 0.4 MMOL) IN 2 ML ETHYL ACETATE AND CORN OIL (1:2) 2/WK FOR 20 WK (STUDY DURATION: LIFETIME), Tumor Site: Type of Lesion: FORESTOMACH: SQUAMOUS CELL CARCINOMA, THYROID: C-CELL TUMOR, FOLLICULAR CELL TUMOR, LUNG: TUMOR, NERVOUS SYSTEM: TUMOR;, Tumor Site: Type of Lesion: FORESTOMACH: SQUAMOUS CELL CARCINOMA, THYROID: C-CELL TUMOR, FOLLICULAR CELL TUMOR, LUNG: TUMOR, NERVOUS SYSTEM: TUMOR active; positive | Strain/Sex: F344/MALE, Route: GAVAGE, Dose: 0, 6 MG/ML IN 0.2 ML ETHYL ACETATE AND CORN OIL 2/WK FOR 20 WK (STUDY DURATION: LIFESPAN), Tumor Site: Type of Lesion: FORESTOMACH: TUMOR, THYROID: C-CELL TUMOR, FOLLICULAR CELL TUMOR, LUNG: TUMOR, NERVOUS SYSTEM: TUMOR, COLON: TUMOR, PERI, Tumor Site: Type of Lesion: FORESTOMACH: TUMOR, THYROID: C-CELL TUMOR, FOLLICULAR CELL TUMOR, LUNG: TUMOR, NERVOUS SYSTEM: TUMOR, COLON: TUMOR, PERI active; positive | Strain/Sex: F344/MALE, Route: GAVAGE, Dose: 0, 12 MG/ML (TOTAL DOSE 0; 1.1 MMOL) IN 2 ML ETHYL ACETATE AND CORN OIL (1:2) 2/WK FOR 28 WK (STUDY DURATION: LIFETIME), Dose: 0, 12 MG/ML (TOTAL DOSE 0; 1.1 MMOL) IN 2 ML ETHYL ACETATE AND CORN OIL (1:2) 2/WK FOR 28 WK (STUDY DURATION: LIFETIME), Tumor Site: Type of Lesion: FORESTOMACH: SQUAMOUS CELL CARCINOMA, LUNG: TUMOR, ILEUM/JEJUNUM: TUMOR, BODY CAVITY: MESOTHELIOMA, ZYMBAL GLAND: TUMOR;, Tumor Site: Type of Lesion: FORESTOMACH: SQUAMOUS CELL CARCINOMA, LUNG: TUMOR, ILEUM/JEJUNUM: TUMOR, BODY CAVITY: MESOTHELIOMA, ZYMBAL GLAND: TUMOR active; positive | Strain/Sex: F344/MALE, Route: GAVAGE, Dose: 0, 12 MG/ML IN 0.2 ML ETHYL ACETATE AND CORN OIL 2/WK FOR 28 WK (STUDY DURATION: LIFESPAN), Tumor Site: Type of Lesion: FORESTOMACH: TUMOR, LUNG: TUMOR, ILEUM/JEJUNUM: TUMOR, PERITONEUM: MESOTHELIOMA, Tumor Site: Type of Lesion: FORESTOMACH: TUMOR, LUNG: TUMOR, ILEUM/JEJUNUM: TUMOR, PERITONEUM: MESOTHELIOMA active; positive | Strain/Sex: F344/MALE, Route: ORAL, Dose: 0, 0.3, 1, 3, 10 PPM IN DRINKING WATER FOR 104 WK (STUDY DURATION: 111 WK), Dose: 0, 0.3, 1, 3, 10 PPM IN DRINKING WATER FOR 104 WK (STUDY DURATION: 111 WK), Tumor Site: Type of Lesion: BRAIN: GLIOMA, MAMMARY GLAND: FIBROMA, LUNG: ADENOMA, LUNG: ADENOCARCINOMA, PERITONEUM: MESOTHELIOMA, Tumor Site: Type of Lesion: BRAIN: GLIOMA, MAMMARY GLAND: FIBROMA, LUNG: ADENOMA, LUNG: ADENOCARCINOMA, PERITONEUM: MESOTHELIOMA active; positive | Strain/Sex: SPRAGUE-DAWLEY/FEMALE, Route: IN UTERO, Dose: 0, 2.5, 10 MG/KG BW ONCE ADMINISTERED INTRAVENOUSLY ON DAY 15 OF GESTATION (STUDY DURATION: 104 WK), Dose: 0, 2.5, 10 MG/KG BW ONCE ADMINISTERED INTRAVENOUSLY ON DAY 15 OF GESTATION (STUDY DURATION: 104 WK), Tumor Site: Type of Lesion: BRAIN: GLIOMA active; positive | Strain/Sex: SPRAGUE-DAWLEY/MALE, Route: IN UTERO, Dose: 0, 2.5, 10 MG/KG BW ONCE ADMINISTERED INTRAVENOUSLY ON DAY 15 OF GESTATION (STUDY DURATION: 104 WK), Dose: 0, 2.5, 10 MG/KG BW ONCE ADMINISTERED INTRAVENOUSLY ON DAY 15 OF GESTATION (STUDY DURATION: 104 WK), Tumor Site: Type of Lesion: BRAIN: GLIOMA active; positive | Strain/Sex: SPRAGUE-DAWLEY, Route: INTRAVENOUSLY TO MATERNAL RATS AT 15 D OF GESTATION, PROGENY OBSERVED, Dose: 0, 2.5, 6.25, 10.0 MG/KG BW (STUDY DURATION: 24 MO), Dose: 0, 2.5, 6.25, 10.0 MG/KG BW (STUDY DURATION: 24 MO), Tumor Site: Type of Lesion: BRAIN: OLIGODENDRO-GLIOMA AND MIXED GLIOMA active; positive | Strain/Sex: SPRAGUE-DAWLEY, Route: INTRAVENOUSLY TO MOTHERS AT 15 D OF GESTATION, PROGENY OBSERVED, Dose: 0, 2.5, 6.25, 10.0 MG/KG BW (STUDY DURATION: 2 YRS), Dose: 0, 2.5, 6.25, 10.0 MG/KG BW (STUDY DURATION: 2 YRS), Tumor Site: Type of Lesion: CRANIAL NERVE: TUMORS active; positive | Strain/Sex: SPRAGUE-DAWLEY, Route: INTRAVENOUSLY TO MOTHERS AT 15 D OF GESTATION, PROGENY OBSERVED, Dose: 0, 2.5, 6.25, 10.0 MG/KG BW (STUDY DURATION: 2 YRS), Dose: 0, 2.5, 6.25, 10.0 MG/KG BW (STUDY DURATION: 2 YRS), Tumor Site: Type of Lesion: SPINAL NERVE: TUMORS active; positive | Strain/Sex: SPRAGUE-DAWLEY, Route: INTRAVENOUSLY TO MOTHERS AT 15 D OF GESTATION, PROGENY OBSERVED, Dose: 0, 2.5, 6.25, 10.0 MG/KG BW (STUDY DURATION: 24 MO), Dose: 0, 2.5, 6.25, 10.0 MG/KG BW (STUDY DURATION: 24 MO), Tumor Site: Type of Lesion: SPINAL CORD: TUMORS active; positive | Strain/Sex: WISTAR/MALE, FEMALE, Route: SUBCUTANEOUS, Dose: 0, 60 MG/KG BW ADMINISTERED TO 3 DAY OLD RATS (STUDY DURATION: 12 MO), Tumor Site: Type of Lesion: CENTRAL NERVOUS SYSTEM: GLIOMA active; positive | Strain/Sex: WISTAR/MALE, FEMALE, Route: TRANSPLACENTAL, Dose: 0, 60 MG/KG BW INTRAVENOUS DOSE ADMINISTERED TO LATE GESTATIONAL RATS AND OFFSPRING OBSERVED FOR 12 MO (STUDY DURATION:, Tumor Site: Type of Lesion: CENTRAL NERVOUS SYSTEM: GLIOMA active; positive | Strain/Sex: WISTAR/MALE, Route: INTRAPERITONEAL, Dose: 300 MG/KG BW 1/WK FOR 45 WK (STUDY DURATION: 45 WK), Tumor Site: Type of Lesion: INTEGUMENTARY SYSTEM (SUBCUTANEOUS TISSUE): SPINDLE CELL SARCOMA active; positive

— PubChem BioAssay AID1259411 (Chemical Carcinogenesis Research Information System (CCRIS), 2018)
